{"source": "paper PMC6349869", "about": "“The palladacycle complex AJ-5 induces apoptotic cell death while reducing autophagic flux in rhabdomyosarcoma cells” (Cell Death Discovery, 2019)", "key": {"[1]": {"test_system": "SW872 cells", "assay": "MTT cell viability assay, SW872 liposarcoma", "format": "cell-based, human", "conditions": "48 h"}, "[2]": {"test_system": "SW1353, SW872, SW982, HT1080 and MG-63 cells", "assay": "Selectivity index of sarcoma subtype cell lines (MTT)", "format": "cell-based, human", "conditions": "relative to the combined IC50 values for normal fibroblasts (FG0 and DMB); SW1353, SW872, SW982, HT1080, MG-63", "protocol": "Cells were seeded in 96-well plates and treated the next day with a range of AJ-5 concentrations (0.1–1.0 μM) or vehicle ([…]) for 48 h. Cell viability was measured using the 3-(4,5-dimethylthiazol-2-yl)-2,5-diphenyl-trazolium bromide (MTT) assay (11465007001; Sigma Aldrich) according to the manufacturer’s instructions. Mean cell viability was calculated as a percentage of the mean vehicle control. At least three independent experiments in quadruplicate were performed from which the half maximal inhibitory concentration (IC50) was determined using GraphPad Prism version 6.0 (GraphPad Software, California, USA). The selectivity index (SI) was determined by dividing the IC50 of a normal cell line by the IC50 of a cancer cell line.\nFig. S2 AJ-5 is cytotoxic in a range of sarcoma subtypes. […] Graphs show mean cell viability as a percentage of vehicle control ± SEM for each concentration of AJ-5 determined from three independent experiments performed in quadruplicate. […] (B) Selectivity indices (SIs) were determined for each cell line by dividing the IC50 of each non-malignant cell line (Fig. 1C) including normal fibroblast cell lines (FG0 and DMB) and mesenchymal stem cell line (A10021501) by the IC50 of each sarcoma cell line. […] Colonies were stained with crystal violet and images from three independent repeats were quantified using the ImageJ plugin ColonyArea. […]"}, "[3]": {"test_system": "C2C12 cells", "assay": "Clonogenic assay, C2C12 myoblasts", "format": "cell-based, mouse", "conditions": "24 h of 0.3 µM", "protocol": "Cells were seeded in 6-well plates and treated the following day with IC50, ½ IC50, ¼ IC50 AJ-5 and vehicle. After 24 h, 800–4000 cells were seeded in 35 mm dishes in drug-free medium. Formation of colonies were monitored and after 7–21 days cells were fixed with 3:1 methanol:acetic acid and stained with 0.5% crystal violet (Sigma Aldrich) in 100% methanol. Colonies were imaged and percentage colony area was determined using ImageJ v1.50i[58] and the plugin ColonyArea[59]. Colony area was determined for each drug concentration and expressed as a percentage of vehicletreated control."}, "[4]": {"test_system": "caspase-3/7, caspase-8, caspase-9, PARP in RH30 and RD cells", "assay": "Caspase-Glo assays and western blots of apoptosis markers", "format": "cell-based, human", "protocol": "Cells were lysed at 4 °C in whole-cell lysis buffer (0.125 M Tris-HCl pH 6.8, 4% SDS, 0.2% glycerol, 0.1% β-mercaptoethanol and a pinch of bromophenol blue) and boiled for 10 min. Proteins were resolved by SDS-PAGE (6–15% gels) and transferred to Hybond ECL membranes (Amersham, UK). The membranes were incubated with primary antibodies: rabbit polyclonal antibodies to phospho-histone H2A.X (Ser139) (#2577), phospho-chk2 (Thr68) (#221), phospho-p38 MAPK (Thr180/Tyr182) (#9211), cleaved caspase-3 (Asp175) (#9661), PARP (#9542), caspase-9 (#9502), LC3B (#2775), p38 MAPK (#9212), rabbit monoclonal antibody to cleaved caspase-7 (Asp198) (D6H1) (#8438), mouse monoclonal antibodies to phospho-ATM (Ser1981) (D6H9) (#5883), Cyclin B1 (V152) (#4135), Caspase-8 (1C12) (#9746), SQSTM1/p62 (D5L7G) (#88588) from Cell Signaling Technology (Massachusetts, USA); mouse monoclonal antibody to p53 (DO-1) (sc-126), rabbit polyclonal antibodies to p21 (C-19) (sc-397), cyclin A (H-432) (sc-751), cyclin B1 (H-433)(sc-752), PARP-1 (H-250) (sc-7150) from Santa Cruz Biotechnology (Texas, USA); rabbit polyclonal antibody to p38 MAP kinase (M0800) from Sigma Aldrich. After primary antibody incubation, membranes were incubated with goat anti-rabbit or goat anti-mouse HRP-conjugated secondary antibodies (Bio-Rad Laboratories, California, USA). Antibody reactive proteins were visualized by enhanced chemiluminescence using SuperSignal West Pico Chemiluminescent Substrate Kit (Thermo Fisher Scientific) or WesternBright ECL HRP Substrate Kit (Advansta, California, USA). Densitometry readings were obtained using ImageJ v1.50i[58] and protein expression levels were represented as a ratio of protein of interest/p38 loading control normalized to the vehicletreated control sample where appropriate. All blots are representative of at least two independent repeats.\nCells were seeded and treated for 24 h with IC50 AJ-5, vehicle or 0.5 µM (IC50) doxorubicin which was included and as a positive control. […]"}, "[5]": {"test_system": "RD cells", "assay": "Autophagic flux by western blotting (p62; LC3II with bafilomycin A1), RD", "format": "cell-based, human", "protocol": "AJ-5, synthesized as previously described, was dissolved in dimethyl sulfoxide (DMSO) (D8418; Sigma Aldrich) to give a 5 mM AJ-5 stock which was stored at room temperature (RT) and used within 5 days. AJ-5 was diluted in cell culture medium to achieve the desired final concentration and a vehicle control (DMSO) of the same concentration was prepared simultaneously. Cells were treated at a confluency of 60%. For western blot experiments to determine autophagy flux, cells were treated with 200 nM bafilomycin A1 (B1793; Sigma Aldrich) for 2 h post AJ-5 treatment. Doxorubicin (z/26/0167; Teva Pharmaceutical Industries Ltd, Israel) was used as a positive control in Caspase-Glo experiments at a concentration of 0.5 µM.\nCells were lysed at 4 °C in whole-cell lysis buffer (0.125 M Tris-HCl pH 6.8, 4% SDS, 0.2% glycerol, 0.1% β-mercaptoethanol and a pinch of bromophenol blue) and boiled for 10 min. Proteins were resolved by SDS-PAGE (6–15% gels) and transferred to Hybond ECL membranes (Amersham, UK). […] Densitometry readings were obtained using ImageJ v1.50i[58] and protein expression levels were represented as a ratio of protein of interest/p38 loading control normalized to the vehicletreated control sample where appropriate. […]"}}, "data": [{"smiles": "CC(C)c1cccc(C(C)C)c1[N+]1=Cc2cccc[c]2[Pd-2]1([Cl])[P+](CC[P+](c1ccccc1)(c1ccccc1)[Pd-2]1([Cl])[c]2ccccc2C=[N+]1c1c(C(C)C)cccc1C(C)C)(c1ccccc1)c1ccccc1", "note": "(centres unmarked) [AJ-5]", "values": [{"measurement": "IC50", "setting": "[1]", "value": "< 300", "unit": "nM"}, {"measurement": "Selectivity index (SI)", "setting": "[2]", "value": "> 2"}, {"measurement": "Ability of C2C12 myoblasts to survive and proliferate (colony area)", "setting": "[3]", "value": "not significantly hindered"}, {"measurement": "Activation of caspases-8 and -9 compared with IC50 doxorubicin", "setting": "[4]; RD cells, 24 h, IC50 AJ-5 vs 0.5 µM doxorubicin", "value": "more robustly activated"}, {"measurement": "Active (cleaved) caspases-3/7 and cleaved PARP", "setting": "[4]; RH30 and RD", "value": "increased levels"}, {"measurement": "Cleaved caspase-8 and caspase-9", "setting": "[4]; RH30 and RD, western blotting and Caspase-Glo", "value": "increased levels and activity"}, {"measurement": "Autophagic flux judged by p62 levels", "setting": "[5]; 0.1 µM or IC50, 24 and 48 h", "value": "increases autophagic flux"}, {"measurement": "LC3II in the presence of bafilomycin A1, compared with vehicle", "setting": "[5]; IC50 24 h then 200 nM bafilomycin A1 2 h", "value": "negligible change in LC3II"}]}]}
